Our source for the K values is article PMC10943693, “Evaluation of binding mechanism of dietary phytochemical, capsaicin, with human transferrin: targeting neurodegenerative diseases therapeutics” (Frontiers in Pharmacology, 2024).

In the assay the target is T1, Human transferrin (htf) (Homo sapiens, UniProt P02787).
T1 construct: gene TF; commercial protein from Sigma Aldrich
The assay is described as follows: intrinsic fluorescence quenching (excitation […] nm), modified Stern-Volmer plot. In kind it is binding. Conditions: 4 µM htf, 0-6 µM capsaicin; inner filter corrected; double-log.

SMILES strings stand for the structures.

T1 sequence (P02787 20-698): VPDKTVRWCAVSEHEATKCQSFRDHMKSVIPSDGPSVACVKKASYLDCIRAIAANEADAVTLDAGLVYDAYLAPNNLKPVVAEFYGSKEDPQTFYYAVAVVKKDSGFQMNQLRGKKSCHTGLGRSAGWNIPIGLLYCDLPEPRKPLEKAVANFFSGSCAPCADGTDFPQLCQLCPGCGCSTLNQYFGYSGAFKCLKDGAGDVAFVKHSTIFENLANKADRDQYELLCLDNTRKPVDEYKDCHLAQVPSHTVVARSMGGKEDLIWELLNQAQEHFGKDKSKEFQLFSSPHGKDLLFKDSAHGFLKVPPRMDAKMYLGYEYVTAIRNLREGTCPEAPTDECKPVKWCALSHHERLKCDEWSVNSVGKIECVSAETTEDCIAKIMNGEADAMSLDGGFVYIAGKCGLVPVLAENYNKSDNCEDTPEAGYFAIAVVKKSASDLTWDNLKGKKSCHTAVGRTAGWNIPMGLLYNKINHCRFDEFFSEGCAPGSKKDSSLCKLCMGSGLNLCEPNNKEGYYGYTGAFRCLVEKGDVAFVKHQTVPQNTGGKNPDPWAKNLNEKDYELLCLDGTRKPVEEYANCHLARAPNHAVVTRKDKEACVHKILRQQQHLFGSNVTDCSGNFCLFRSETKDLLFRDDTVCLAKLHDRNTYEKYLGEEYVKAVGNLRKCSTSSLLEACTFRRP

In the case of `COc1cc(CNC(=O)CCCC/C=C/C(C)C)ccc1O` [capsaicin, 8-methyl-N-vanillyl-6-nonenamide], the K was 3.99e+06 M⁻¹.
